According to PubChem BioAssay (NCI):
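Tested at 5 concentrations; 48 h exposure; 96-well plates; endpoints linearly interpolated, else capped at highest concentration. TGI marks complete inhibition of growth.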

Columns and labels:
Experiment in all cases: inhibition of tumour cell growth, NCI panel, 48 h
CAKI-1 renal = system: CAKI-1 renal
CCRF-CEM leukemia = system: CCRF-CEM leukemia
COLO 205 colon = system: COLO 205 colon
HCT-15 colon = system: HCT-15 colon
HL-60(TB) leukemia = system: HL-60(TB) leukemia
HS 578T breast = system: HS 578T breast
MDA-N = system: MDA-N
NCI-H460 lung = system: NCI-H460 lung
SNB-19 CNS = system: SNB-19 CNS
SNB-75 CNS = system: SNB-75 CNS
SR leukemia = system: SR leukemia

SMILES	TGI (CAKI-1 renal)	TGI (CCRF-CEM leukemia)	TGI (COLO 205 colon)	TGI (HCT-15 colon)	TGI (HL-60(TB) leukemia)	TGI (HS 578T breast)	TGI (MDA-N)	TGI (NCI-H460 lung)	TGI (SNB-19 CNS)	TGI (SNB-75 CNS)	TGI (SR leukemia)
Cc1c(S(=O)(=O)c2ccccc2)c(N)n(Cc2ccccc2)c1C	> 100 µM	> 100 µM	> 100 µM	> 100 µM	> 100 µM	> 100 µM	> 100 µM	> 100 µM	> 100 µM	> 100 µM	> 100 µM
Clc1nc(Cl)nc(NC23CC4CC(CC(C4)C2)C3)n1	21.7 µM	23.1 µM	35.5 µM	31.7 µM	16.5 µM	28.9 µM	35.3 µM	60.4 µM	40.3 µM	36.5 µM	47.7 µM
c1cc2nnc1SCCSCCSc1ccc(nn1)SCCSCCS2	> 100 µM	> 100 µM	> 100 µM	> 100 µM	> 100 µM	> 100 µM	> 100 µM	> 100 µM	> 100 µM	77.3 µM	> 100 µM
Cc1cccc(N2C(=O)C3ON(C(C(N)=O)c4ccccc4)C(c4c5ccccc5c(Cl)c5ccccc45)C3C2=O)c1C (stereo not given)	27.3 µM	> 50 µM	16.7 µM	22 µM	23.3 µM	> 50 µM	10 µM	21.6 µM	18.4 µM	19.4 µM	5.53 µM
Cc1cn(C2C=CC(COP(=O)(OCC3=CC(=O)c4ccccc4C3=O)N(C)CCCCCl)O2)c(=O)[nH]c1=O (stereo not given)	25.9 µM	11.9 µM	10.9 µM	20.9 µM	4.41 µM	18.6 µM	4.22 µM	11.2 µM	25.6 µM	11.9 µM	2.05 µM
